The experiment has as its system patients with NSCLC. Put plainly: POPLAR phase II trial: atezolizumab vs docetaxel, efficacy by PD-L1, CXCL9, IFNG expression level. The class given is in vivo, human. How it is done: An RNA-based molecular assay was used to evaluate the association between clinical response to treatment with atezolizumab (MPDL3280A), an anti-PD-L1 antibody, and expression levels of PD-L1, CXCL9, and IFNG in individuals with NSCLC enrolled in a phase II clinical trial in which atezolizumab was administered as a monotherapy.
The POPLAR (Clinical Trial ID No.: NCT01903993) patient population evaluated for PD-L1, CXCL9, and IFNG expression levels consisted of 215 patients. Patients were eligible for enrollment in the POPLAR study if they had locally advanced or metastatic (e.g., stage IIIB, stage IV, or recurrent) NSCLC; disease progression during or following treatment with a prior platinum-containing regimen for locally advanced, unresectable/inoperable, or metastatic NSCLC, or disease recurrence within 6 months of treatment with a platinum-based adjuvant/neoadjuvant regimen; measurable disease, as defined by RECIST v1.1; and an ECOG performance status of 0 or 1. Participants were randomized to receive either atezolizumab at a dose of 1200 mg intravenously every three weeks or docetaxel 75 mg per square meter (mg/m^2) intravenously every three weeks. Treatment with atezolizumab could be continued as long as participants were experiencing clinical benefit, i.e., in the absence of unacceptable toxicity or symptomatic deterioration attributed to disease progression.
To evaluate whether PD-L1, CXCL9, and IFNG gene expression status was associated with patient response to atezolizumab (MPDL3280A) treatment, the gene expression level of PD-L1, CXCL9, and IFNG was assessed in pre-treatment, FFPE tumor samples obtained from each patient. RNA was isolated from the FFPE tumor sections and PD-L1, CXCL9, and IFNG gene expression was measured using PCR-based methodology (Fluidigm). The expression level, expressed as the cycle threshold (Ct) for each of PD-L1, CXCL9, and IFNG was normalized to the expression level of a housekeeping gene (e.g., TMEM55B). The normalized expression value, dCt, where dCt(target gene)=Ct(control gene)−Ct(target gene) for each of PD-L1, CXCL9, and IFNG, was then averaged to obtain a single numerical averaged dCt value for the aggregate expression level of PD-L1, CXCL9, and IFNG.
Tumor specimens obtained from the patients were categorized into different high or low expression level subgroups based on the immune-score expression level of PD-L1, CXCL9, and IFNG relative to a cut-off value for a given percentile (25th, 50th, or 75th percentile) of the population. The 25th percentile was defined by the immune-score expression levels of PD-L1, CXCL9, and IFNG greater than or equal to 25% of all immune-score expression levels of PD-L1, CXCL9, and IFNG in the population analyzed. The 50th percentile was defined by the immune-score expression levels of PD-L1, CXCL9, and IFNG greater than or equal to 50% of all immune-score expression levels of PD-L1, CXCL9, and IFNG in the population analyzed. The 75th percentile was defined by the immune-score expression levels of PD-L1, CXCL9, and IFNG greater than or equal to 75% of all immune-score expression levels of PD-L1, CXCL9, and IFNG in the population analyzed. […]
The OS, PFS, and ORR endpoints from the POPLAR clinical trial were evaluated against the PD-L1, CXCL9, and IFNG expression level cut-offs defined herein (e.g., the 25%, 50%, and 75% expression level quartiles). […]

SMILES strings stand for the structures.

Drawing on patent publication US20200157635A1, “DIAGNOSTIC AND THERAPEUTIC METHODS FOR CANCER” (Genentech, Inc., priority 2017, published 2020), this text covers ORR for one compound.

With `CC(=O)O[C@@]12CO[C@@H]1C[C@H](O)[C@@]1(C)C(=O)[C@H](O)C3=C(C)[C@@H](OC(=O)[C@H](O)[C@@H](NC(=O)OC(C)(C)C)c4ccccc4)C[C@@](O)([C@@H](OC(=O)c4ccccc4)[C@H]21)C3(C)C` [docetaxel], the ORR (BEP (n = 113 vs 112)) is listed as 8%; the ORR (ITT (n = 144 vs 143)) turned out to be 15% vs 15%; the ORR (PD-L1, CXCL9, IFNG expression level percentile ≥25%) came out at 13%; the ORR (PD-L1, CXCL9, IFNG expression level percentile ≥50% (median)) stood at 15%; the ORR (PD-L1, CXCL9, IFNG expression level percentile ≥75%) is recorded as 13%.
